Several values for one entry are separate records, joined by “and”; a condition that tells them apart may be missing. Equal entries are not always repeated.

The text below walks through data of US12274740B2, “Microbiome protection from oral antibiotics” (Theriva Biologics, Inc., priority 2016, dated 2025).

Data set [1] in a line: Two arm PK study in dogs: amoxicillin levels in dog serum with or without Formulation 2 (TABLE 17). It counts as in vivo, beagle dogs. Particulars: for Amoxicillin levels in dog serum, 0.00 hr: pre-dose. The protocol:
Formulation 2 (TABLE 17) was chosen for evaluation in dogs. A two arm pharmacokinetics (PK) study was performed in three non-naïve male beagle dogs (age 2 years, approximately 12 kg). Animals were fasted overnight prior to the day of dosing in each arm. In Arm 1, the dogs were administered one dose of an amoxicillin suspension (amoxicillin powder, Sandoz, Lot FW1707, reconstituted in apple juice to 400 mg/5 ml) via oral gavage at 80 mg/kg. Animals were returned to their cages post-dose and fed 1.5 hrs after amoxicillin dosing. In Arm 2, dogs were administered an amoxicillin suspension (80 mg/kg, prepared as in Arm 1) via oral gavage. Immediately after the oral amoxicillin was dosed, the animals received one size 4 capsule of Formulation 2 (TABLE 17) containing 10 mg of SYN-004. The capsules were not chewed and were swallowed whole. Capsules were dosed by hand by placing the capsule in the back of the dog's mouth and followed by 6 mL of Mott's 100% apple juice in a syringe. Animals were returned to their cages post-dose and fed 1.5 hrs after amoxicillin dosing. There was a seven day washout period between the two arms. In both arms of the study, blood (approximately 2 mL) was collected for serum PK analysis at pre-dose, and 30 minutes, 1, 2, 3, 4, 6, 8, and 10 hrs post-dose. Serum was collected and immediately frozen at −80° C. Feed was ad-libitum throughout both arms, except during dosing, which was done fasted as described. […] Animals were returned to the colony following the last blood collection.
Serum was analyzed for amoxicillin levels using a validated liquid chromatography (LC) method with tandem mass spectrometry detection (LC/MS/MS). Briefly, the serum samples were extracted using the protein precipitation extraction method and analyzed using reverse phase LC. Amoxicillin and amoxicillin-d4 (internal standard) were detected using tandem MS. The study was performed using Applied Biosystems Triple Quad API 500 LC/MS/MS system with Turbo ion spray interfaces. The data were acquired and analyzed by Applied Biosystems “Analyst” software, version 1.5. The lower limit of quantitation (LLOQ) for amoxicillin was 101.723 ng/ml. The upper limit of quantitation (ULOQ) for amoxicillin was 20344.678 ng/ml. A calibration curve consisting of two control blanks, two zero standards and ten non-zero standards, prepared in naïve dog serum, covering a range of 101.723 to 20344.678 ng/ml, were run with each sample batch. Amoxicillin levels were similar for each animal in Arm 1 and Arm 2 of the study (TABLE 19). The amoxicillin serum levels in Arm 1 and Arm 2 for each dog were plotted separately and the area under the curves was calculated (FIG. 25). The area under the curve for each animal was similar in Arm 1 and Arm 2 of the study. […] Therefore, the strategy to reduce the potential for premature release, release in the small intestine prior to absorption of orally-delivered amoxicillin, by using FS 30 D-coated SYN-004 layered sucrose pellets incorporated inside FS 30 D-coated capsule, or the “nested” strategy, was successful as indicated by the similar amoxicillin blood levels in each dog with and without SYN-004.

A short description of data set [2]: Piglet study of modified nested SYN-004 formulation with oral amoxicillin. Type of data set: in vivo, Yorkshire piglets. As to conditions: pig serum three hours after oral amoxicillin 40 mg/kg. The protocol:
Formulation 2 (TABLE 17) capsules consisting of FS 30 D-coated SYN-004 pellets within FS 30 D-coated capsules were prepared for testing in normal piglets. For this formulation, size 9H gelatin capsules (small capsules, 2.7 mm diameter, 5 mm length) were filled with 3 pellets of FS 30 D-coated SYN-004 sucrose cores, then coated with FS 30 D. The coated 9H capsule containing the SYN-004 pellets was then inserted into a size 5 gelatin capsule for ease of delivery to the pigs (FIG. 26). Each FS 30 D-coated pellet of SYN-004 contained […] of SYN-004. Therefore, the total SYN-004 dose was 0.5 mg/size 5 gelatin capsule. The anticipated advantage of this nested strategy using the small 9H capsules is that the gelatin capsule will dissolve in the stomach, releasing the small FS 30 D-coated 9H capsule that is protected from stomach acid and is small enough to pass through the gastric pylorus without the need for stomach emptying. […] Amoxicillin levels were similar in animals treated with amoxicillin alone and with amoxicillin plus the SYN-004 (FIG. 27; TABLE 20).

The next data set can be described thus: in vivo. Particulars: Yorkshire, pig.
Where [3] appears, read: Arm 1: amoxicillin 80 mg/kg oral gavage alone.
Where [4] appears, read: Arm 2: amoxicillin 80 mg/kg + one capsule Formulation 2 (TABLE 17), 10 mg SYN-004.

Experimental for in vivo: A study was performed using normal piglets to compare the three, modified-release formulations of SYN-004 as described in Example 2, and the original SYN-004 formulation (Enteric pH 5.5) as described in Example 1, delivered orally with oral amoxicillin, to evaluate the effect on amoxicillin serum levels and protection of the microbiome from amoxicillin-induced dysbiosis (FIG. 20).
A total of 25, two month old Yorkshire piglets, approximately 20 kg each, were used for this study. All 25 animals were treated with oral amoxicillin twice a day for a total of 7 days, in addition, Groups 2-5 received SYN-004 four times a data starting the day before amoxicillin treatment for a total of 9 days (TABLE 7).
On Study Day 0, Groups 2-5 (Pigs 6-25) received one size 0 capsule of one of each of the four SYN-004 formulations, containing 50 mg of SYN-004, orally, four times a day at 7 am, 12 pm, 5 pm, and 10 pm for a total of 9 days. Pigs were fed 3 times a day, after SYN-004 dosing at 7 am, after SYN-004 dosing at 12 pm, and after SYN-004 dosing at 5 pm. Beginning on Study Day 1, all groups, 1-5 (Pigs 1-25), received oral amoxicillin (fruit flavored oral suspension, Sandoz, NDC: 0781-6157-46, Lot #FB0703; 20 mg/kg) twice a day at 7 am and at 5 pm, for a total of 7 days. […]
Amoxicillin levels in the pig serum were quantified using a validated liquid chromatography method with MS/MS detection.

`CC1(C)S[C@@H]2[C@H](NC(=O)[C@H](N)c3ccc(O)cc3)C(=O)N2[C@H]1C(=O)O` [Amoxicillin]: in data set [1] (setting [3]), the “Amoxicillin levels in dog serum, 0.50 hr” value is 17908.396 ng/mL and 16720.439 ng/mL; the “Amoxicillin levels in dog serum, 0.00 hr” value was “BLQ (BLQ: Below lower limit of quantitation)”. In data set [1] (setting [4]), the “Amoxicillin levels in dog serum, 2.00 hr” value was 30317.167 ng/mL and 35935.251 ng/mL; the “Amoxicillin levels in dog serum, 0.00 hr” value is listed as “BLQ (BLQ: Below lower limit of quantitation)”. Further, the concentration at 10 h in data set [1] (male, beagle, dog, serum, oral, 80 mg/kg, Arm 1: amoxicillin 80 mg/kg oral gavage alone) stood at 183 ng/mL. In data set [1] (male, beagle, dog, serum, oral, 80 mg/kg, Arm 1: amoxicillin 80 mg/kg oral gavage alone, read-out: Amoxicillin levels in dog serum, 0.50 hr), the concentration at 0.5 h is 12600 ng/mL. In addition, the concentration at 2 h in data set [1] (male, beagle, dog, serum, oral, Arm 2: amoxicillin 80 mg/kg + one capsule Formulation 2 (TABLE 17), 10 mg SYN-004) worked out at 18700 ng/mL. The “area under the curve, Arm 1 versus Arm 2” value in data set [1] (serum amoxicillin, each animal) is on record as “similar”. In data set [2] (Yorkshire, pig, serum, oral, 40 mg/kg, Amoxicillin Serum Levels (ng/ml) Mean, alone or with SYN-004 0.5 mg, 5 pigs, heading: Amoxicillin Serum Levels Mean), the concentration at 3 h was found to be 182 ng/mL. The “Amoxicillin Serum Levels (ng/ml), individual animal” value in data set [2] (alone or with one capsule SYN-004 modified nested formulation (0.5 mg)) is 29647 ng/mL and 6498 ng/mL and 25130 ng/mL and 14936 ng/mL and 14757 ng/mL. Also, the concentration at 3 h in the data set “in vivo” (Amoxicillin (ng/ml) 3 hours) fell in the range of 1160 to 2320 ng/mL. Moreover, the concentration at 6 h in “in vivo” (Amoxicillin (ng/ml) 6 hours) was in the range of 667 to 1160 ng/mL.
